Assay results taken from PubChem BioAssay AID1963844 (Molecular Pharmacology Branch, DTP, NCI, 2024).
“And” between values parts separate entries of the source, which are not always exact repeats. Identical values can stand only once.

Tested on: 422866-222-R5-J1-PDC complex spheroid viability
Assay: Anticancer human tumor 422866-222-R5-J1-PDC patient-derived pancreatic adenocarcinoma cell line growth inhibition [POLQ]
Details: for viability, T/C: stronger effect = lower value
Description: Multicellular complex tumor spheroid response to Polymerase (POL) inhibitors (novobiocin, ART-558, RP6685) in combination with a variety of drugs and investigational agents in selected tumor cell lines
The POL inhibitors (novobiocin, ART-558, and RP6685) were evaluated both individually and in combination with standard of care and investigational anticancer small molecules within a complex spheroid model of solid tumors. . Complex spheroids include a stromal component modeled by human endothelial cells (HUVEC) and fibroblasts modeled by human mesenchymal stem cells (MSCs). The concentration ranges selected for each drug and investigational agent were based upon clinically achievable concentrations if the clinical Cmax of the agent was known.
Compounds. The drugs and investigational agents: novobiocin (NSC847541), ART-558 (NSC835418), RP-6685 (NSC848927), peposertib (NSC802822), ceralasertib (NSC780249), elimusertib (NSC800525), camonsertib (NSC841442), AZD-1390 (NSC803789), olaparib (NSC753686), talazoparib (NSC767125), rucaparib (NSC756644), sotorasib (NSC818433), MRTX-1133 (NSC836407), SN-38 (NSC673596), topotecan (NSC609699), epotoside (NSC141540), doxorubicin (NSC123127), gemcitabine (NSC613327), 5-fluorouracil (NSC19893), paclitaxel (NSC125973), vemurafenib (NSC761431), MSA-2 (NSC828583), SN-011 (NSC837082), adavosertib (NSC754352), prexasertib (NSC758257), carboplatin (NSC241240) and oxaliplatin (NSC266046), were obtained from the National Cancer Institute (NCI) Developmental Therapeutics Program Chemical Repository (21). The FDA-approved anticancer drug set is available from the Developmental Therapeutics Program at https://dtp.cancer.gov/organization/dscb/obtaining/. […] The stock solutions were prepared in dimethyl sulfoxide (DMSO, Sigma-Aldrich, St. Louis, MO, cat. D2650), except for the platinum compounds which were prepared in saline (Quality Biological, Gaithersburg, MD, cat. 114-055-101), at 800-fold the tested concentration and stored at -70 degrees C prior to their use. All drugs and investigational agents were tested over a range starting from a high concentration at or near the clinical Cmax and decreasing in half-log increments. If the clinical Cmax for an agent had not been determined, the highest concentration tested was 10 microM, except for SN-38, which was tested at a high concentration of 1 microM.
Cell Culture. All cells were maintained in an incubator at 37 degrees C and 5% CO2 with 95% humidity. The PDC lines were cultured according to standard operating procedures established by the NCI PDMR (https://pdmr.cancer.gov). Table 3 of the manuscript, lists the cell lines along with the number of the three cell types plated to form the mct-spheroids and media for tumor cell growth. After thawing, all PDC lines, except 997537-175-T-J1-PDC and 415267-285-R-J2-PDC, were cultured in Matrigel-coated flasks prepared with a working solution of 1X Ham's F-12 nutrient mix, without supplementation (Thermo Fisher Scientific, cat. 11765054), 100 U/mL penicillin-streptomycin (Thermo Fisher Scientific, cat. 15140122), and 2.5% Matrigel (Corning Inc., Corning, NY, cat. 354248) for the first three passages. The two PDC lines 997537-175-T-J1-PDC and 415267-285-R-J2-PDC were cultured on uncoated flasks. The 857933-349-R-J2-PDC line was cultured in 6C/Colon 1B media containing advanced DMEM/F-12 (Thermo Fisher Scientific, cat. 12634028), 10 mM HEPES (Thermo Fisher Scientific, cat. 15630080), 1X GlutaMAX supplement (Thermo Fisher Scientific, cat. 35050061), 0.1 mg/mL primocin (InvivoGen, San Diego, CA, cat. ant-pm-2), 10% defined fetal bovine serum, heat inactivated (HyClone Laboratories Inc., Logan, UT, cat. SH30070.03HI), 50% L-WRN conditioned media (ATCC, cat. CRL-3276), 1.25 mM N-Acetyl-L-cysteine (Sigma-Aldrich, cat. A9165), 10 mM nicotinamide (Sigma-Aldrich, cat. N0636), 1X B-27 supplement (Thermo Fisher Scientific, cat. 17504044), 1X N-2 supplement (Thermo Fisher Scientific, cat. […]

[1] = compound alone, run of 12/05/2023
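Further: spheroids exposed to compounds for one week before readout.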
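Wherever viability, T/C is given: percent of DMSO vehicle wells luminescence so 100% = untreated viability.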

Compound | viability, T/C (compound 0.0316 µM) | viability, T/C (compound 0.1 µM) | viability, T/C (compound 0.316 µM) | viability, T/C (compound 1 µM) | viability, T/C (compound 3.16 µM) | viability, T/C (compound 10 µM) | IC50 (curve of compound) | viability, T/C (compound 0.00316 µM) | viability, T/C (compound 0.01 µM) | IC50 (compound alone, run of 11/27/2023) [nM] | IC50 [1] [nM] | viability, T/C (compound 0.000316 µM) | viability, T/C (compound 0.001 µM)
CCc1cc2c(N3CCc4c(cc(Cn5ccnc5)cc4-c4cn(C)nc4C(F)(F)F)C3=O)ccnc2c(OC)n1 | 93.7% and 75.7% and 82.9% | 81% and 78.8% and 84.5% | 89.8% and 81.5% and 92.5% | 117% and 113% and 99.8% | 129% and 108% and 106% | 108% and 87.1% and 92.4% | > 10000 nM |  |  |  |  |  | 
CNCc1ccc(-c2[nH]c3cc(F)cc4c3c2CCNC4=O)cc1 | 88% and 95% and 99.8% | 89.3% and 83.7% and 99.7% |  | 90.7% and 102% and 101% | 77.7% and 90.4% and 86.5% | 94.5% and 76.6% and 86.3% | > 10000 nM |  |  |  |  |  | 
COc1cc(C2c3cc4c(cc3C(OC3OC5COC(C)OC5C(O)C3O)C3COC(=O)C23)OCO4)cc(OC)c1O (stereo not drawn) | 90.2% and 97.7% and 97.4% | 95% and 86.7% and 97.1% | 79.5% and 59.3% and 73.2% | 54.9% and 45.2% and 52.5% | 37% and 39.4% and 37.1% | 33.3% and 33.2% and 28.4% | 1340 nM and 667 nM and 1150 nM |  |  |  |  |  | 
COc1cc2cc(C(=O)CCC(=O)O)sc2cc1OC | 106% and 85.3% and 94.7% | 99.5% and 89.1% and 83% | 107% and 91% and 88% |  | 98.6% and 97.3% and 98% |  | > 10000 nM |  |  |  |  |  | 
COc1ccc([C@@H](O)c2cc(-c3ncnc4cc(N5CCOCC5)ccc34)c(F)cc2Cl)nn1 | 80.3% and 87.1% and 99.6% | 84.6% and 77% and 79.5% | 76.6% and 85.4% and 75.6% | 62.4% and 59% and 67.8% | 43.3% and 51.7% and 45.8% | 35.5% and 35.1% and 37.1% | 2100 nM and 2820 nM and 3020 nM |  |  |  |  |  | 
COc1cccc(OCCCN)c1-c1cc(Nc2cnc(C#N)cn2)n[nH]1 | 38.3% and 35% and 28.3% | 38.7% and 31.6% and 31.1% | 34% and 37.7% and 24.6% | 35.8% and 33.7% and 48.9% |  |  | 5.56 nM and 7.54 nM and 7.07 nM | 61.5% and 71.1% and 79.5% | 37.6% and 43.8% and 38% |  |  |  | 
COc1cccc2c1C(=O)c1c(O)c3c(c(O)c1C2=O)CC(O)(C(=O)CO)CC3OC1CC(N)C(O)C(C)O1 (stereo not drawn) | 70.1% and 56.7% and 69% |  | 36.8% and 26.5% and 35.3% | 34.3% and 23.3% and 26.8% | 30.2% and 28.3% and 28.6% | 33.7% and 25.8% and 38.8% | 106 nM and 68.8 nM and 221 nM |  |  |  |  |  | 
Cc1cccc(N(C)C(=O)C2C(O)CCN2c2nc(C)cc(C(F)(F)F)c2C#N)c1 (stereo not drawn) |  | 93.7% [middle of 13 runs] | 94.8% [middle of 13 runs] |  |  | 99.8% [middle of 13 runs] |  |  |  | > 10000 | > 10000 |  | 
Cn1ncnc1[C@H]1c2n[nH]c(=O)c3cc(F)cc(c23)N[C@@H]1c1ccc(F)cc1 | 96.2% and 89.7% and 91.1% | 82.2% and 98.5% and 82.5% |  |  |  |  | > 100 nM | 95.8% and 100% and 84.7% | 102% and 89.2% and 106% |  |  | 105% and 98.6% and 90.6% | 94.4% and 84.4% and 82.5%
Nc1ccc(C#CCN(C(=O)Cc2ncc(C(F)(F)F)cc2C(F)(F)F)c2ccc(F)cc2)nn1 | 93.7% [middle of 13 runs] | 97.3% [middle of 13 runs] |  | 97.2% [middle of 13 runs] | 105% [middle of 13 runs] | 114% [middle of 13 runs] |  |  |  |  | > 10000 |  | 
Nc1ccn(C2OC(CO)C(O)C2(F)F)c(=O)n1 (stereo not drawn) | 62.1% and 51.8% and 64.1% | 54.6% and 35.1% and 56.4% | 41% and 37% and 34.6% | 41.4% and 31.6% and 43% | 38.3% and 35.9% and 36.3% | 40.9% and 38.9% and 34.1% | 120 nM and < 31.6 nM and 146 nM |  |  |  |  |  | 
O=C(Nc1ccc(O)c(NS(=O)(=O)c2ccc(F)cc2)c1)c1ccc(-c2ccccc2)cc1 | 110% and 86.1% and 107% | 79.5% and 94.1% and 96.3% | 78.5% and 81.6% and 79.1% | 90.2% and 93.1% and 97.9% | 90% and 107% and 97.1% | 106% and 113% and 128% | > 10000 nM |  |  |  |  |  | 
O=C(c1cc(Cc2n[nH]c(=O)c3ccccc23)ccc1F)N1CCN(C(=O)C2CC2)CC1 | 98.1% and 101% and 83.2% | 97.3% and 102% and 84.5% |  | 99.5% and 102% and 91.3% |  |  | > 10000 nM |  |  |  |  |  | 
O=c1[nH]cc(F)c(=O)[nH]1 | 95.8% and 101% and 92% | 103% and 93.5% and 99.9% | 107% and 97.4% and 98.9% | 85% and 101% and 80.7% | 73.7% and 83.7% and 89.8% | 74.5% and 73.4% and 72.8% | > 10000 nM |  |  |  |  |  | 
